This is an account of results in US20260166039A1 (SCHRÖDINGER, INC., priority 2022, published 2026).

The target in the first assay is T1, Wee1 kinase domain (Homo sapiens, UniProt P30291).
T1 construct: Wee1 kinase domain was purchased from Carna (catalog #05-177); purchased Carna 05-177
T1 sequence (P30291 299-569 limits assumed): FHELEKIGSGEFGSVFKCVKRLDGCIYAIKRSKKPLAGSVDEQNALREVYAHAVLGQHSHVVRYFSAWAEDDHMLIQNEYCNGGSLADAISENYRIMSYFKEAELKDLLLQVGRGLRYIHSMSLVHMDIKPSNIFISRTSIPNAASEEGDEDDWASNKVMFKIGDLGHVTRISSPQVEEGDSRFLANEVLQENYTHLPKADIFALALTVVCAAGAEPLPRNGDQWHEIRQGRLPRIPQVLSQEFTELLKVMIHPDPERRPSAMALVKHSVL
Kind of assay: Wee1 Kinase Biochemical Assay (ADP-Glo). To be noted: 1 nM Wee1 enzyme, 15 uM ATP, 4 hours at 25° C. The essentials:
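Poly(Lys,Tyr 4:1) phosphorylation by the kinase domain is followed as ADP output (ADP-Glo) after 4 h at 25 °C, with ATP at 15 uM. Values are percent inhibition between vehicle and full-inhibition controls.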
For orientation: ADP-Glo turns the ADP formed in a reaction into a luminescent signal.
A word on the IC50: it is the point on the concentration scale where inhibition reaches its midpoint. For the compound `CC1(C)C[C@H]2N(c3cccc(N=S(C)(C)=O)n3)c3nc(Nc4ccn(C5CCN(C6COC6)CC5)c(=O)c4)ncc3[C@@]2(C)CO1` (single isomer, unassigned) [Example 824], the half-maximal inhibitory concentration (IC50) is less than 10 nM.
The same measure, in the same setting: as for `CN1CCN(c2ccc(Nc3ncc4c(n3)N(c3cccnn3)[C@@H]3CC(C)(C)OC[C@]43C)cc2)CC1` (single isomer, unassigned) [Example 828], the figure is less than 10 nM.
Same read-out and setting: as for `CC1(C)C[C@H]2N(c3cccc(N=S(C)(C)=O)n3)c3nc(Nc4ccn(C5CC5)n4)ncc3[C@@]2(C)CO1` (single isomer, unassigned) [Example 831], the figure is less than 10 nM; as for `CN1CCN(c2ccc(Nc3ncc4c(n3)N(c3cnccn3)[C@@H]3CC(C)(C)OC[C@]43C)cc2)CC1` (single isomer, unassigned) [Example 827], less than 10 nM.

The assay is the same for the next values; noted with them: Wee1 kinase domain, 15 uM ATP, ADP-Glo.
In turn, `CNCc1cccc(N2c3nc(Nc4ccc(N5C[C@H]6C[C@@H]5CO6)cc4)ncc3[C@]3(C)COC(C)(C)C[C@H]23)n1` (single isomer, unassigned) [Example 43] displayed an IC50 of 10 to 100 nM.
Still for that read-out and setting: as for `CN1CC[C@@](C)(c2ccc(Nc3ncc4c(n3)N(c3cccc(N=S(C)(C)=O)n3)[C@H]3CC(C)(C)OC[C@@]43C)cc2)C1` (single isomer, unassigned) [Example 170], the figure is 10 to 100 nM; as for `CN1CCC(n2cc(Nc3ncc4c(n3)N(c3cccc(N=S(C)(C)=O)n3)[C@H]3CC(C)(C)OC[C@@]43C)cn2)C1` (stereo partly drawn) [Example 195, dimethyl((6-((4bS,8aS)-4b,7,7-trimethyl-2-((1-((R)-1-methylpyrrolidin-3-yl)-1H-pyrazol-4-yl)amino)-4b,7,8,8a-tetrahydropyrano[3′,4′:4,5]pyrrolo[2,3-d]pyrimidin-9(5H)-yl)pyridin-2-yl)imino)-16-sulfanone], 100 to 1000 nM; as for `C[C@H]1COC(=O)N1c1cccc(N2c3nc(Nc4ccc([C@@]5(C)CCN(C)C5)cc4)ncc3[C@]3(C)COC(C)(C)C[C@H]23)n1` (single isomer, unassigned) [Example 348], 10 to 100 nM.
Still for that read-out and setting: to `CN[C@@H]1CCN(c2ccc(Nc3ncc4c(n3)N(c3cccc(N5C(=O)OC[C@@H]5C)n3)[C@H]3CC(C)(C)OC[C@@]43C)cc2)C1` (single isomer, unassigned) [Example 318] belongs 10 to 100 nM.
The same measure, in the same setting: as for `CNCc1cccc(N2c3nc(Nc4ccc(C(C)(C)C)cc4)ncc3[C@]3(C)COC(C)(C)C[C@H]23)n1` (single isomer, unassigned) [Example 74], the figure is 10 to 100 nM.
For the compound `C[C@H]1COC(=O)N1c1cccc(N2c3nc(Nc4ccc(N5CCN(C)CC5)cc4)ncc3[C@@]3(C)COC(C)(C)C[C@@H]23)n1` (single isomer, unassigned) [Example 234], the 50% inhibitory concentration (IC50) fell in the range of 10 to 100 nM.
On the same count and under the same terms, to `CN1CCC(c2cc(Nc3ncc4c(n3)N(c3cccc(N=S(C)(C)=O)n3)[C@H]3CC(C)(C)OC[C@@]43C)on2)CC1` (single isomer, unassigned) [Example 203] belongs 100 to 1000 nM; to `CNCc1cccc(N2c3nc(Nc4ccc([C@H]5CCC(=O)N5C)nc4)ncc3[C@@]3(C)COC(C)(C)C[C@@H]23)n1` (single isomer, unassigned) [Example 98], less than 10 nM; to `CC1(C)C[C@H]2N(c3cccc(N=S(C)(C)=O)n3)c3nc(Nc4ccc5cnnn5c4)ncc3[C@@]2(C)CO1` (single isomer, unassigned) [Example 362], less than 10 nM.
In the case of `Cc1cc(Nc2ncc3c(n2)N(c2cccc(N=S(C)(C)=O)n2)[C@H]2CC(C)(C)OC[C@@]32C)ccc1[C@H]1CCNC1` (single isomer, unassigned) [Example 150], the half-inhibitory concentration (IC50) lay in the range of 10 to 100 nM.
Same read-out and setting: to `CNCc1cccc(N2c3nc(Nc4ccc(C5CCOCC5)nc4)ncc3[C@]3(C)COC(C)(C)C[C@H]23)n1` (single isomer, unassigned) [Example 55] belongs no less than 1000 nM; to `CN1C[C@H]2C[C@@H]1CN2c1ccc(Nc2ncc3c(n2)N(c2cccc(N=S(C)(C)=O)n2)[C@H]2CC(C)(C)OC[C@@]32C)cc1` (single isomer, unassigned) [Example 121], 100 to 1000 nM.

Still in this assay, the particulars now being: class symbols; 1 nM Wee1 enzyme, 15 uM ATP, 4 hours at 25° C.
On to `CN1CCN(c2cccc(N3c4nc(Nc5ccc(N6CCOCC6)cc5)ncc4[C@]4(C)COC(C)(C)C[C@H]34)n2)CC1` (single isomer, unassigned) [Example 536], for which the IC50 was in the range of 10 to 100 nM.
Compound `CN[C@@H](C)c1cccc(N2c3nc(Nc4ccc(N5CCOCC5)cc4)ncc3[C@]3(C)COC(C)(C)C[C@H]23)n1` (single isomer, unassigned) [Example 538] returned a half-maximal inhibitory concentration (IC50) of 10 to 100 nM.
Same read-out and setting: to `CC[C@]1(O)CCc2ccc(N3c4nc(Nc5ccn(C6CCN(C)CC6)c(=O)c5)ncc4[C@@]4(C)COC(C)(C)C[C@@H]34)nc21` [Example 811, 4-(((4bR,8aR)-9-((S)-7-ethyl-7-hydroxy-6,7-dihydro-5H-cyclopenta[b]pyridin-2-yl)-4b,7,7-trimethyl-4b,5,7,8,8a,9-hexahydropyrano[3′,4′:4,5]pyrrolo[2,3-d]pyrimidin-2-yl)amino)-1-(1-methylpiperidin-4-yl)pyridin-2(1H)-one] belongs less than 10 nM; to `CC1(C)C[C@@H]2N(c3cccc(N4CCOC4=O)n3)c3nc(Nc4ccc(N5CCNCC5)cc4)ncc3[C@]2(C)CO1` (single isomer, unassigned) [Example 600], 100 to 1000 nM.
The same measure, in the same setting: as for `CN1CC(c2ccc(Nc3ncc4c(n3)N(c3cccc(N5CCCC5=O)n3)[C@H]3CC(C)(C)OC[C@@]43C)cc2)C1` [Example 697, 1-(6-((4bS,8aS)-4b,7,7-trimethyl-2-((4-(1-methylazetidin-3-yl)phenyl)amino)-4b,7,8,8a-tetrahydropyrano[3′,4′:4,5]pyrrolo[2,3-d]pyrimidin-9(5H)-yl)pyridin-2-yl)pyrrolidin-2-one], the figure is 10 to 100 nM; as for `CC1(C)C[C@@H]2N(c3cccc(C(C)(C)O)n3)c3nc(Nc4ccc(O[C@H]5CCNC5)cc4)ncc3[C@]2(C)CO1` (single isomer, unassigned) [Example 420], 10 to 100 nM.
Same read-out and setting: as for `CN1CC[C@H]2CN(c3ccc(Nc4ncc5c(n4)N(c4cccc(N6CCOC6=O)n4)[C@H]4CC(C)(C)OC[C@@]54C)cc3)C[C@H]21` [Example 685, 3-(6-((4bS,8aS)-4b,7,7-trimethyl-2-((4-((3aS,6aS)-1-methylhexahydropyrrolo[3,4-b]pyrrol-5(1H)-yl)phenyl)amino)-4b,7,8,8a-tetrahydropyrano[3′,4′:4,5]pyrrolo[2,3-d]pyrimidin-9(5H)-yl)pyridin-2-yl)oxazolidin-2-one], the figure is 10 to 100 nM.
`Cc1cc(Nc2ncc3c(n2)N(c2cccc([C@H]4CCCN4)n2)[C@H]2CC(C)(C)OC[C@@]32C)ccc1N1CCOCC1` (single isomer, unassigned) [Example 521]: the IC50 lay within 100 to 1000 nM.
On the same count and under the same terms, to `CNCc1cccc(N2c3nc(Nc4ccc(N5CCOC[C@@H]5C)cc4)ncc3[C@]3(C)COC(C)(C)C[C@H]23)n1` (single isomer, unassigned) [Example 475] belongs 100 to 1000 nM; to `CN1C[C@H]2C[C@@H]1CN2c1ccc(Nc2ncc3c(n2)N(c2ccccn2)[C@@H]2CC(C)(C)OC[C@]32C)cc1` [Example 801, (4bR,8aR)-4b,7,7-trimethyl-N-(4-((1R,4R)-5-methyl-2,5-diazabicyclo[2.2.1]heptan-2-yl)phenyl)-9-(pyridin-2-yl)-4b,5,7,8,8a,9-hexahydropyrano[3′,4′:4,5]pyrrolo[2,3-d]pyrimidin-2-amine], less than 10 nM.
Same read-out and setting: to `CNCc1cccc(N2c3nc(Nc4ccc(-c5cnn(C)c5)c(C)c4)ncc3[C@]3(C)COC(C)(C)C[C@H]23)n1` (single isomer, unassigned) [Example 463] belongs 100 to 1000 nM; to `CC[C@]1(O)CCc2ccc(N3c4nc(Nc5ccc(N6C[C@@H]7C[C@H]6CN7C)cc5)ncc4[C@@]4(C)COC(C)(C)C[C@@H]34)nc21` [Example 791, (S)-7-ethyl-2-((4bR,8aR)-4b,7,7-trimethyl-2-((4-((1S,4S)-5-methyl-2,5-diazabicyclo[2.2.1]heptan-2-yl)phenyl)amino)-4b,7,8,8a-tetrahydropyrano[3′,4′:4,5]pyrrolo[2,3-d]pyrimidin-9(5H)-yl)-6,7-dihydro-5H-cyclopenta[b]pyridin-7-ol], less than 10 nM.
The same measure, in the same setting: as for `CNCc1ccnc(N2c3nc(Nc4ccc(N5CCOCC5)cc4)ncc3[C@]3(C)COC(C)(C)C[C@H]23)c1` (single isomer, unassigned) [Example 548], the figure is no less than 1000 nM; as for `CNCc1cccc(N2c3nc(Nc4ccc(N5CCN(C)CC5)c(C)c4)ncc3[C@]3(C)COC(C)(C)C[C@H]23)n1` (single isomer, unassigned) [Example 447], 100 to 1000 nM.
`CC1(C)C[C@H]2N(c3cccc([C@H]4CCCN4)n3)c3nc(Nc4ccc(N5CCOCC5)cc4)ncc3[C@@]2(C)CO1` (single isomer, unassigned) [Example 528]: the IC50 was less than 10 nM.
Same read-out and setting: as for `CC1(C)C[C@@H]2N(c3cccc(N4CCCC4=O)n3)c3nc(Nc4ccc(O[C@@H]5CCNC5)cc4)ncc3[C@]2(C)CO1` [Example 617, 1-(6-((4bS,8aS)-4b,7,7-trimethyl-2-((4-(((R)-pyrrolidin-3-yl)oxy)phenyl)amino)-4b,7,8,8a-tetrahydropyrano[3′,4′:4,5]pyrrolo[2,3-d]pyrimidin-9(5H)-yl)pyridin-2-yl)pyrrolidin-2-one], the figure is 100 to 1000 nM.
`CN[C@]1(C)CCc2ccc(N3c4nc(Nc5ccc(N6CCOCC6)cc5)ncc4[C@]4(C)COC(C)(C)C[C@H]34)nc21` (single isomer, unassigned) [Example 570] registered a concentration for half-maximal inhibition (IC50) of 100 to 1000 nM.
On the same count and under the same terms, as for `CC1(C)C[C@@H]2N(c3cccc(N4CCOC4=O)n3)c3nc(Nc4ccc([C@]5(C)CCNC5)cc4)ncc3[C@]2(C)CO1` [Example 665, 3-(6-((4bS,8aS)-46,7,7-trimethyl-2-((4-((S)-3-methylpyrrolidin-3-yl)phenyl)amino)-4b,7,8,8a-tetrahydropyrano[3′,4′:4,5]pyrrolo[2,3-d]pyrimidin-9(5H)-yl)pyridin-2-yl)oxazolidin-2-one], the figure is 10 to 100 nM.
